From patent US20100240069A1, “Drug Discovery Assay for Modulators of HIF-Prolyl Hydroxylase Activity” (Boehringer Ingelheim International GmbH, priority 2009, published 2010)
Where two headings read alike, the source gives them in different places.

Tests used:
[1] = tested on: recombinant rhesus HPH protein; assay: Effect of additives on activity of recombinant rhesus HPH enzyme; format: biochemical, rhesus monkey (Macaca mulatta)
rhesus HPH1 = rhesus HPH1 (Macaca mulatta, UniProt H9FPE3, INS27EP); assay: biochemical
Chain of rhesus HPH1 (H9FPE3 1-405, stated change not applied): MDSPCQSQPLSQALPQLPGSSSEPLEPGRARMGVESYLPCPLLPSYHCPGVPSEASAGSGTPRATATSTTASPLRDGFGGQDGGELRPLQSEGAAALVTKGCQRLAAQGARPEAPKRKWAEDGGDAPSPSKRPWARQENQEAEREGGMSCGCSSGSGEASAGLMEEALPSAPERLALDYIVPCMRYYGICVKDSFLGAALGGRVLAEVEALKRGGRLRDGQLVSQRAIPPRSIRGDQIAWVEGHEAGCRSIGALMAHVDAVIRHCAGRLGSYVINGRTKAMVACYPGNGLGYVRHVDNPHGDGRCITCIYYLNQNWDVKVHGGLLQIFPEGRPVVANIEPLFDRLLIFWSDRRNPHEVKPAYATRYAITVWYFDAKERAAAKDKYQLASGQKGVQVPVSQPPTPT
Procedure: (§1) More specifically, the HPH enzyme assay is conducted in a multi-well plate format. In a suitable buffer, a peptide substrate for the HPH, and a substrate for a protein-based pull down assay, and HPH enzyme are incubated for a period of time and at a temperature sufficient to allow the hydroxylation of the proline-containing substrate to occur. After the incubation period (e.g., 45 min.) the reaction is quenched by the addition of a solution containing the detection reagents. In specific embodiments, the solution comprises EDTA (2.5 mM) and the detection reagents (GST-VBC, Streptavidin-allophycocyanin and Europium-labeled anti-GST Antibody). The detection method in this assay is time-resolved fluorescent assay in which the time-resolved fluorescent signal (excitation at 330 nm; emission at 620 and 665 nm) is read on a plate reader after […] of incubation. The ratio of signal at 665 nm to 620 nm is used to calculate the amount of peptide interaction with GST-VBC as a measure of protein hydroxylation.
(§2) In an exemplary assay, the assay is conducted in a 96 or 384-well plate format. In the 384-well scale, the reaction (10 μl) contains buffer (20 mM MOPS (pH 6.5), 1.5 mM magnesium chloride, 5 mM potassium chloride, 0.1% bovine serum albumin, 1 mM TCEP, 10 μM ferrous ammonium sulfate, and 2 mM sodium ascorbate), substrate (2 μM α-ketoglutarate and 60 nM HIF-1αs peptide (biotin-[…]), enzyme (e.g. 8 nM of HPH3), and an inhibitor from a DMSO solution (1% DMSO final in the assay). After 45 min, the reaction is quenched by the addition of EDTA (2.5 mM) and the detection reagents (GST-VBC, Streptavidin-allophycocyanin and Europium-labeled anti-GST Antibody). The time-resolved fluorescent signal (excitation at 330 nm; emission at 620 and 665 nm) is read on a plate reader after 1 h of incubation. The ratio of signal at 665 nm to 620 nm is used to calculate the amount of peptide interaction with GST-VBC as a measure of protein hydroxylation.
(§3) In the assay, the biotinylated substrate is captured by the Streptavidin which is attached to allophycocyanin. The VBC interacts with the substrate and the interaction is recognized through the aid of an anti GST antibody which is labeled with europium. […] The time-resolved fluorescent signal (excitation at 330 nm; emission at 620 and 665 nm) is read on a plate reader after 1 h of incubation. The ratio of signal at 665 nm to 620 nm is used to calculate the amount of peptide interaction with GST-VBC as a measure of protein hydroxylation.
(§4) The VBC protein complex was generated by co-expression of Glutathione S-Transferase-VHL (von Hippel Lindau), elongin B and elongin C in Escherichia coli followed by purification of the complex using glutathione affinity resin and size-exclusion chromatography.

rhesus HPH2 = rhesus HPH2 (Macaca mulatta, UniProt I2CX88); assay: biochemical
Chain of rhesus HPH2 (I2CX88 1-426): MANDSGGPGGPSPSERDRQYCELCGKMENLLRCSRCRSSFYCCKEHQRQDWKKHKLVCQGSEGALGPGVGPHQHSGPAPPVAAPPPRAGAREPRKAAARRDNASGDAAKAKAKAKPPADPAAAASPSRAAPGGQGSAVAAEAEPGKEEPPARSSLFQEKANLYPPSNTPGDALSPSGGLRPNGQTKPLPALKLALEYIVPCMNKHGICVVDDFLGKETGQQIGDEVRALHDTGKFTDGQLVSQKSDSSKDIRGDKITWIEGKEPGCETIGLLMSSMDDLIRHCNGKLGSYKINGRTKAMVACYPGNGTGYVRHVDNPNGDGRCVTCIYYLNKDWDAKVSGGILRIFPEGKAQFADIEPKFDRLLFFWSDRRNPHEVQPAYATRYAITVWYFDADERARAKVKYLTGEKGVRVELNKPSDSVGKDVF
Procedure: as §1, §2, §3, §4

rhesus HPH3 = biological target: T1, rhesus HPH3 (Macaca mulatta, UniProt H9FPE4); assay: TR-FRET HPH enzyme assay (VBC recognition of hydroxylated peptide), HPH3; format: biochemical, rhesus monkey (Macaca mulatta); conditions: recombinant rhesus HPH3, inhibitory activity
T1 construct: fused on or other part: GST tag, N- or C-terminal, for purification
Procedure: More specifically, the HPH enzyme assay is conducted in a multi-well plate format. In a suitable buffer, a peptide substrate for the HPH, and a substrate for a protein-based pull down assay, and HPH enzyme are incubated for a period of time and at a temperature sufficient to allow the hydroxylation of the proline-containing substrate to occur. After the incubation period (e.g., 45 min.) the reaction is quenched by the addition of a solution containing the detection reagents. In specific embodiments, the solution comprises EDTA (2.5 mM) and the detection reagents (GST-VBC, Streptavidin-allophycocyanin and Europium-labeled anti-GST Antibody). The detection method in this assay is time-resolved fluorescent assay in which the time-resolved fluorescent signal (excitation at 330 nm; emission at 620 and 665 nm) is read on a plate reader after 1 of incubation. The ratio of signal at 665 nm to 620 nm is used to calculate the amount of peptide interaction with GST-VBC as a measure of protein hydroxylation.
In an exemplary assay, the assay is conducted in a 96 or 384-well plate format. […]
In the assay, the biotinylated substrate is captured by the Streptavidin which is attached to allophycocyanin. […] The time-resolved fluorescent signal (excitation at 330 nm; emission at 620 and 665 nm) is read on a plate reader after 1 h of incubation. […]

## [Fe+2] [ferrous iron]
[1]; addition to recombinant rhesus HPH enzyme, isoform not stated
  effect on enzyme activity: increased the activity of the enzyme

## NNc1nncc2ccccc12 [Hydralazine]
Rhesus HPH1
  IC50: 400 µM
Rhesus HPH2
  IC50: 320 µM

## O=C(O)CCC(=O)O [Succinate]
Rhesus HPH1; read-out: IC50 HPH1, recombinant rhesus HPH1, inhibitory activity
  IC50: 200 µM
Rhesus HPH2; read-out: IC50 HPH2, recombinant rhesus HPH2, inhibitory activity
  IC50: 380 µM
Rhesus HPH3
  IC50: 80 µM

## [Cl-].[Cl-].[Co+2] [CoCl2]
[1]
  effect on enzyme activity: inhibited enzyme activity
